The record followed here is US20120245193A1, “PER[…] μ OPIOID ANTAGONISTS” (Alkermes, Inc., priority 2011, published 2012).

The structures appear in SMILES notation.

For one data set, the system named is Male Swiss-Webster mice. Briefly: PGE2 test of gut motility (inhibition of morphine's blockade of PGE2-induced diarrhea). In kind it is in vivo. Here is the method:
A rodent model of gut motility model (Russell, et al., 1982; Eur. J. Pharm., 78: 255-61) was used to evaluate the bioavailability and efficacy of Compound-1 in […]. The PGE2 test of gut motility evaluates the inhibition of morphine's side effects. PGE2 (a prostaglandin) induces diarrhea in mice within 15 minutes of an intraperitoneal injection (0.1 mg/kg). Morphine (1 mg/kg, IP) blocks this effect. Peripherally-acting opioid antagonists inhibit morphine's blockade of PGE2-induced diarrhea. Male Swiss-Webster mice (n=10/group) were administered Compound-1 or a reference compound 15 minutes (IP or PO) prior to morphine and placed in a Plexiglas pie cage. PGE2 was administered 30 minutes after morphine. Observations of diarrhea were made 15 minutes after PGE2 administration. Duration of action was tested by adjusting the time between Compound-1 and morphine administration. FIGS. 2 and 3 show the effectiveness of reference compound methylnaltrexone (MNTX) and Compounds 1-4 to inhibit opioid-induced delay in gut motility by oral and IP administration.
(NTX represents naltrexone).

In data set [1] the test system is patients diagnosed with opioid-induced bowel dysfunction (OBD). Briefly: Multicenter, multi-dose study in patients with opioid-induced bowel dysfunction. It counts as in vivo, human. The procedure: In this multicenter, multi-dose study, 87 patients diagnosed with opioid-induced bowel dysfunction (OBD) during treatment with opioids for chronic, non-cancer pain were randomized to receive escalating doses of Compound-1 (1-100 mg), or placebo with a pre-defined dose escalation schedule. […] (FIG. 8).
The mean change from baseline in CSBMs per week for patients receiving 100 mg Compound-1 was 3.6 versus 0.8 in the placebo group (p=0.006), or a net increase of 2.8 CSBMs over placebo.

Turning to `C[N+]1(CC2CC2)CC[C@]23CC(=O)CC[C@@]2(O)[C@H]1Cc1ccc(C(N)=O)c(O)c13` (stereo partly drawn) [Compound-1], the “duration of action compared with MNTX” value in the data set with Male Swiss-Webster mice (minimal effective PO dose of Compound-1 vs minimal effective IP dose of MNTX, FIG. 7) was “longer duration of action than MNTX”. Also, in the data set with Male Swiss-Webster mice (oral administration, FIG. 6), the “dose relative to methylnaltrexone at which morphine's effects are blocked” value amounted to 3 fold lower. Moreover, the “duration of blocking morphine's effects” value with Male Swiss-Webster mice (oral administration, FIG. 6, compared with methylnaltrexone) is given as “up to 4 hours”. Besides, in data set [1] (30 mg dose), the “change from baseline in number of average spontaneous bowel movements (SBMs) in comparison to placebo” value is “statistically significant increase”. The “net increase of CSBMs over placebo” value in data set [1] (100 mg) was found to be 2.8 CSBMs. For the same molecule, in data set [1] (100 mg dose), the “average number of complete spontaneous bowel movements (CSBMs) per week from baseline as compared to placebo” value was “clinically meaningful and statistically significant increase”; the “change from baseline in number of average spontaneous bowel movements (SBMs) in comparison to placebo” value is “statistically significant increase”. Besides, in data set [1] (100 mg once-daily), the “net increase of SBMs over placebo” value stood at 3.9 SBMs. Further, the “mean change from baseline in the average number of SBMs per week” value in data set [1] (100 mg once-daily, placebo 0.7, p=0.003) was determined as 4.6 SBMs per week. For the same molecule, in data set [1] (100 mg, placebo 0.8, p=0.006), the “mean change from baseline in CSBMs per week” value is on record as 3.6 CSBMs per week. Also, in data set [1] (escalating doses 1-100 mg), the opioid use entry is recorded as “no increase in opioid use” and the “reversal of analgesia as measured by change in Numerical Pain Rating Scale (NPRS) scores” value was “no reversal of analgesia”.
